SMILES strings stand for the structures.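 A five-concentration, 48-hour dose response in 96-well plates underlies each endpoint, interpolated linearly between surrounding concentrations. TGI denotes the concentration required for complete inhibition of growth.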 A value given as a limit tells only on which side of the number the result lay.

Test systems include SN12C renal; UACC-62 melanoma; SR leukemia; OVCAR-3 ovarian; HCT-116 colon; A498 renal; BT-549 breast; CAKI-1 renal; MDA-MB-435; SF-539 CNS.
Assay in all cases: inhibition of tumour cell growth, NCI panel, 48 h

`C[n+]1cccc2ccc3cccnc3c21`: the TGI in the test on SN12C renal, in the test on UACC-62 melanoma, in the test with SR leukemia, in the test with OVCAR-3 ovarian, in the test on HCT-116 colon and in the test on A498 renal was greater than 100 µM in each case. Also, the TGI with BT-549 breast, with CAKI-1 renal, in the test with MDA-MB-435 and in the test on SF-539 CNS was greater than 100 µM throughout.

Take `Cc1cn(CCCCCCOC(=O)NC(CCCNC(N)=O)C(=O)O)c(=O)[nH]c1=O` (stereo not given): the TGI in the test with SN12C renal, in the test with UACC-62 melanoma, in the test on SR leukemia, in the test on OVCAR-3 ovarian, with HCT-116 colon and in the test with A498 renal was greater than 100 µM in each case. Besides, the TGI in the test on BT-549 breast, in the test on CAKI-1 renal, in the test on MDA-MB-435 and with SF-539 CNS was greater than 100 µM each time.

For `CN1CCN(C(=O)c2cn(Cc3cncn3Cc3ccc4c(c3)OCO4)cc2-c2cccc3ccccc23)CC1`, the TGI is greater than 100 µM in the test on SN12C renal; 46.8 µM with UACC-62 melanoma; 10.3 µM in the test on SR leukemia; greater than 91.3 µM with OVCAR-3 ovarian; greater than 100 µM in the test on HCT-116 colon; 32.1 µM with A498 renal. For the same molecule, the TGI is greater than 63 µM with BT-549 breast, greater than 84.9 µM in the test with CAKI-1 renal, greater than 58.9 µM with MDA-MB-435 and greater than 72.8 µM in the test on SF-539 CNS.

For the molecule `COc1cc2c(/C=C3/C(=O)Nc4ccccc43)c(Cl)n(Cc3ccc(Cl)cc3)c2cc1C`, the TGI in the test with SN12C renal amounted to 1.06 µM; with UACC-62 melanoma it was 2.5 µM; in the test on SR leukemia, 0.43 µM; with OVCAR-3 ovarian, 0.432 µM; with HCT-116 colon, 0.824 µM; with A498 renal it was 3.4 µM. The TGI in the test on BT-549 breast came out at 1.92 µM; in the test on CAKI-1 renal, 0.834 µM; in the test with MDA-MB-435 it was 0.428 µM; in the test with SF-539 CNS, 0.668 µM.

In the case of `COc1ccc(CCNC(=O)Cc2ccccc2CO)cc1OC`, the TGI in the test with SN12C renal, in the test with UACC-62 melanoma, in the test with SR leukemia, with OVCAR-3 ovarian, in the test on HCT-116 colon and with A498 renal was greater than 100 µM each time. The TGI with BT-549 breast, in the test on CAKI-1 renal, with MDA-MB-435 and with SF-539 CNS was greater than 100 µM in each case.

Regarding `C[C@H]1S[C@@H](c2ccc(Cl)cc2Cl)N(NC(=O)c2ccncc2)C1=O`, the TGI with SN12C renal, in the test on UACC-62 melanoma, in the test with SR leukemia, with OVCAR-3 ovarian, with HCT-116 colon and in the test on A498 renal was greater than 100 µM each time. The TGI in the test on BT-549 breast, in the test with CAKI-1 renal and in the test on MDA-MB-435 was greater than 100 µM throughout.

Take `CC1OC(OC2C(O[C@H]3CC[C@@]4(C)C(=CC[C@H]5[C@@H]6C[C@@H]7O[C@]8(CC[C@@H](C)CO8)[C@@H](C)[C@@H]7[C@@]6(C)CC[C@@H]54)C3)OC(CO)C(O)C2OC2OC(CO)C(O)C(O)C2O)C(O)C(O)C1O` (stereo not given in full): the TGI in the test on SR leukemia is greater than 100 µM; with OVCAR-3 ovarian, 2.69 µM; with A498 renal, 3.15 µM; with BT-549 breast, 4.73 µM; in the test with CAKI-1 renal, 5.07 µM; in the test with MDA-MB-435 it was 3.73 µM. This molecule came in with a TGI with SF-539 CNS of 5.23 µM.

On to `CC(=O)n1[nH]c(=O)n(-c2ccc(Cl)cc2)c1=O`, for which the TGI with SN12C renal, in the test with UACC-62 melanoma, with SR leukemia, with OVCAR-3 ovarian, with HCT-116 colon and with BT-549 breast was greater than 100 µM throughout. The TGI in the test on CAKI-1 renal and in the test with MDA-MB-435 was greater than 100 µM each time.

Consider `CC(C)(C)C1CCC2c3c([nH]c4ccccc34)C3C(=O)N(c4ccc([N+](=O)[O-])cc4)C(=O)C3C2C1` (stereo not given), for which the TGI was found to be 20.8 µM in the test on SN12C renal; 39 µM with UACC-62 melanoma; 19.7 µM in the test with SR leukemia; 28.4 µM in the test with OVCAR-3 ovarian; 22.6 µM with HCT-116 colon; 79.4 µM with A498 renal. Further, the TGI in the test on BT-549 breast was 36.9 µM; in the test on MDA-MB-435, greater than 100 µM; in the test on SF-539 CNS, 42.7 µM.

As for `CCC1(O)CC(CCN(Cc2ccccc2)C(=O)OCc2ccccc2)C(OCc2ccccc2)C1O` (stereo not given), the TGI with SN12C renal worked out at 82 µM; in the test on UACC-62 melanoma it was 28.3 µM; in the test on SR leukemia, 34.9 µM; in the test on OVCAR-3 ovarian it was 26.8 µM; with HCT-116 colon, 48.8 µM; with BT-549 breast, 33.3 µM. Moreover, the TGI came to 65.7 µM in the test on CAKI-1 renal and 38.2 µM in the test on MDA-MB-435.

In the case of `COc1ccc(N2C(=O)C3c4[nH]c5c(C)cccc5c4C4CCC(C(C)C)CC4C3C2=O)cc1` (stereo not given), the TGI in the test with SN12C renal was 98 µM; in the test on SR leukemia, 32.5 µM; with OVCAR-3 ovarian it was 28.4 µM; with A498 renal, 32.8 µM; in the test on BT-549 breast, 56 µM; in the test with CAKI-1 renal, 37.6 µM. In addition, in the test with MDA-MB-435, the TGI was determined as 23.3 µM.

As for `CCc1nc(N)c2nc(-c3cccs3)oc2n1`, the TGI in the test with SN12C renal, in the test with UACC-62 melanoma, in the test on SR leukemia, in the test on OVCAR-3 ovarian, in the test on HCT-116 colon and in the test on BT-549 breast was greater than 100 µM in each case. Besides, the TGI in the test on CAKI-1 renal, in the test with MDA-MB-435 and with SF-539 CNS was greater than 100 µM throughout.

For the molecule `N[C@@H](CCC(=O)NC(Cc1ccccc1)C(=O)NCP(=O)(O)O)C(=O)O` (stereo not given in full), the TGI with SN12C renal, in the test with UACC-62 melanoma, in the test with SR leukemia, with OVCAR-3 ovarian, with HCT-116 colon and in the test with A498 renal was greater than 100 µM in each case. The TGI in the test on BT-549 breast, with MDA-MB-435 and in the test with SF-539 CNS was greater than 100 µM in each case.

As for `O=C(O)c1c(CC(Cc2ccc3c(c2)CCC3)C(=O)O)ccc2c1CCC2` (stereo not given), the TGI with SN12C renal, with SR leukemia, in the test on OVCAR-3 ovarian, in the test on HCT-116 colon, with A498 renal and with BT-549 breast was greater than 100 µM in each case. Also, the TGI in the test on CAKI-1 renal, in the test with MDA-MB-435 and in the test with SF-539 CNS was greater than 100 µM in each case.

The record behind these values is PubChem BioAssay (NCI).
